In US7361643B2, “Methods for inhibiting angiogenesis” (University of Puerto Rico, priority 2000, dated 2008):

Legend:
[1] = tested on: bovine adrenal medullary microvascular endothelial cells; assay: Capillary endothelial cell growth and proliferation (cell count in hemacytometer); format: cell-based
Procedure: Cells in the amount of 2.0×10^4 were seeded per well in 24-well clusters in 1 ml complete EMEM containing 10% (v/v) serum and allowed to grow for 72 hours. Media were removed and the cells were washed twice with phosphate-buffer saline, pH 7.4 (PBS). Cells were synchronized by incubating for 48 hours in 2 mM hydroxyurea in serum-free EMEM with glutamine (2 mM) and one-third of penicillin-streptomycin used in a regular culture condition, followed by incubating 24 hours in serum-free EMEM, as discussed in CAO et al., “Modified Method of Mammalian Cell Synchronization Improves Yield and Degree of Synchronization”, Exp. Cell Res., 193:405-410 (1991), the disclosure of which is herein incorporated by reference in its entirety.
For proliferation assay, cells were trypsinized and counted in a hemacytometer. Viability of cells was determined by trypan blue (0.4% (v/v)) exclusion. Statistical analysis was carried out by StatView II software (Macintosh). Quantitation of cellular differentiation was carried out by observing under a Nikon AlphaShot inverted microscope, and counting the number of capillary lumen-like structures in five randomly selected fields per sample.
Synchronized cells, as described in Example 1, were cultured at 37° C. in complete EMEM containing fetal bovine serum (1% (v/v), 2% (v/v), or 10% (v/v), or complete EMEM with 2% (v/v) fetal bovine serum containing 1 ng/ml −100 ng/ml of bFGF/FGF-2, or containing 0.5 μg/ml to 5.0 μg/ml tunicamycin (lot number 10922120-07 from Boehringer-Mannheim, Indianapolis, Ind.). In each case, the cellular growth and proliferation was monitored by trypan blue exclusion, by counting the cell number, and by their ability to process through the cell cycle by flow cytometry.
Proliferation and Differentiation of Capillary Endothelial Cells: 2.0×10^4 cells were seeded per well in 24-well clusters in 1 ml complete EMEM containing 10% (v/v) serum and allowed to grow for 72 hours. Media were removed and the cells were washed twice with phosphate-buffer saline, pH 7.4 (PBS). […] Cells were routinely monitored by light microscopy. For proliferation assay, cells were trypsinized and counted in a hemacytometer. Viability of cells was determined by trypan blue (0.4% (v/v)) exclusion. […] Quantitation of cellular differentiation was carried out by observing under a Nikon AlphaShot inverted microscope, and counting the number of capillary lumen-like structures in five randomly selected fields per sample. The results were expressed as percent of its corresponding control after normalization of cell numbers. Analysis of Cell Cycle by Flow Cytometry: Assessment of the cell cycle was determined by propidium iodide staining of fixed cell nuclei followed by flow cytometry in a FacSort (Beckton Dickinson) according to the method of Krishan (1975) as modified by Vindelov (1977), as discussed in KRISHAN, “Rapid Flow Cytometric Analysis of Mammalian Cell Cycle by Propidium Iodide Staining”, J. Cell Biol. 66:188-195 (1975); and VINDELOV, “Flow Cytometric Analysis of Nuclear DNA in Cells from Solid Tumors and Cell Suspensions”, Virchows Arch (B), 24:227-231 (1977), the disclosures of which are herein incorporated by reference in their entireties. […]

[2] = tested on: bovine adrenal medullary microvascular endothelial cells; assay: Cell cycle and apoptosis by flow cytometry (propidium iodide); format: cell-based
Procedure: Regarding flow cytometry, assessment of the cell cycle was determined by propidium iodide staining of fixed cell nuclei followed by flow cytometry in a FacSort (Beckton Dickinson) according to the method of Krishan (1975) as modified by Vindelov (1977), as discussed in KRISHAN, “Rapid Flow Cytofluorometric Analysis of Mammalian Cell Cycle by Propidium Iodide Staining”, J. Cell Biol., 66:188-193 (1975); and VINDELOV, “Flow Cytometric Analysis of Nuclear DNA in Cells from Solid Tumors and Cell Suspensions”, Virchows Arch (B), 24:227-231(1977), the disclosures of which are herein incorporated by reference in their entireties. Briefly, cells were trypsinized, and pelleted by centrifugation at 900 rpm in a bench top centrifuge (Sorvall T6000B). After washing twice with PBS the cell pellet was resuspended in propidium iodide-buffer (PI-buffer; 10 mM Tris-HCl, pH 8.0 containing 10 mM NaCl, 0.7 μM PI, 700 units/liter RNase, and 0.1% (v/v) NP-40), kept in ice for 30 minutes and then fixed with 2% (v/v) paraformaldehyde. After FacSort calibration, 3000 events were counted per sample. Acquisition and analysis of data were carried out by using Cell Quest flow cytometry software (Macintosh-based). Gates: M1=G0/G1, M2=S, M3=G2+M, M4=apoptosis.
Proliferation and Differentiation of Capillary Endothelial Cells: 2.0×10^4 cells were seeded per well in 24-well clusters in 1 ml complete EMEM containing 10% (v/v) serum and allowed to grow for 72 hours. Media were removed and the cells were washed twice with phosphate-buffer saline, pH 7.4 (PBS). Cells were synchronized by incubating for 48 hours in 2 mM hydroxyurea in serum-free EMEM with glutamine (2 mM) and one-third of penicillin-streptomycin used in a regular culture condition, followed by incubating 24 hours in serum-free EMEM, as discussed in CAO et al., “Modified Method of Mammalian Cell Synchronization Improves Yield and Degree of Synchronization”, Exp. Cell Res., 193:405-410 (1991), the disclosure of which is herein incorporated by reference in its entirety. Cells were routinely monitored by light microscopy. For proliferation assay, cells were trypsinized and counted in a hemacytometer. Viability of cells was determined by trypan blue (0.4% (v/v)) exclusion. Statistical analysis was carried out by StatView II software (Macintosh). Quantitation of cellular differentiation was carried out by observing under a Nikon AlphaShot inverted microscope, and counting the number of capillary lumen-like structures in five randomly selected fields per sample. The results were expressed as percent of its corresponding control after normalization of cell numbers. Analysis of Cell Cycle by Flow Cytometry: Assessment of the cell cycle was determined by propidium iodide staining of fixed cell nuclei followed by flow cytometry in a FacSort (Beckton Dickinson) according to the method of Krishan (1975) as modified by Vindelov (1977), as discussed in KRISHAN, “Rapid Flow Cytometric Analysis of Mammalian Cell Cycle by Propidium Iodide Staining”, J. Cell Biol. 66:188-195 (1975); and VINDELOV, “Flow Cytometric Analysis of Nuclear DNA in Cells from Solid Tumors and Cell Suspensions”, Virchows Arch (B), 24:227-231 (1977), the disclosures of which are herein incorporated by reference in their entireties. Briefly, cells were trypsinized, and pelleted by centrifugation at 900 rpm in a bench top centrifuge (Sorvall T6000B). After washing twice with PBS the cell pellet was resuspended in propidium iodide-buffer (PI-buffer; 10 mM Tris-HCl, pH 8.0 containing 10 mM NaCl, 0.7 μM PI, 700 units/liter RNase, and 0.1% (v/v) NP-40), kept in ice for 30 minutes and then fixed with 2% (v/v) paraformaldehyde. After FacSort calibration, 3000 events were counted per sample. Acquisition and analysis of data were carried out by using Cell Quest flow cytometry software (Macintosh-based). Gates: M1 G0/G1, M2=S, M3=G2+M, M4=apoptosis.

[3] = tested on: capillary endothelial cells; conditions: BANERJEE et al. (1993); cited from earlier work
protein N-glycosylation = conditions: pre-treatment of cells with β-antagonist; cited from earlier work
[4] = cycloheximide replacing tunicamycin (data not shown)

Compound: bFGF/FGF-2: basic fibroblast growth factor
- endothelial cell proliferation ([1]; bFGF/FGF-2 10 ng/ml-100 ng/ml in 2% serum): stimulated the endothelial cell proliferation over the controls
- reduction of the lag phase ([1]; bFGF/FGF-2 at stimulatory concentrations): ~24 h
- time to complete the cell cycle ([2]; bFGF/FGF-2 10 ng/ml-100 ng/ml (68 hours in 2% serum control)): 56 h
- shortening of the G1 phase ([2]; bFGF/FGF-2 10 ng/ml-100 ng/ml versus 2% serum): 12 h

Compound: C[C@@H]1C[C@@H]([C@H](O)CC2CC(=O)NC(=O)C2)C(=O)[C@@H](C)C1 [cycloheximide]
- cell proliferation [1, 4]: inhibited the cell proliferation in a time- and dose-dependent manner
- induction of apoptosis [2, 4]: did not induce apoptosis

Compound: Amphomycin
- endothelial cell proliferation [3]: inhibits endothelial cell proliferation in a dose-dependent manner

Compound: Cc1ccc(OCC(O)C(C)NC(C)C)c2c1CCC2 (stereo not drawn) [ICI-118,551]
- protein N-glycosylation (protein N-glycosylation): reduced protein N-glycosylation substantially

Compound: CC(C)NCC(O)COc1ccc(CC(N)=O)cc1 (stereo not drawn) [atenolol]
- protein N-glycosylation (protein N-glycosylation): reduced protein N-glycosylation substantially
